From PubChem BioAssay AID248 (DTP/NCI, 2004)
“And” between values parts separate entries of the source, which are not always exact repeats. Equal entries are not always repeated. Inconclusive results and toxic doses are left out. Rule as the data show it: active = T/C of 150% or more; inactive = T/C below 125%.

Tested on: L1210 leukemia ip in BDF1 mice, survival T/C
Assay: NCI In Vivo Anticancer Drug Screen. Data for tumor model L1210 Leukemia (intraperitoneal) in B6D2F1 (BDF1) mice
Details: endpoint: mean survival time, higher = longer survival
Procedure, shortened: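 Transplantable tumor model; survival measured in treated vs vehicle control mice. Value = treated/control.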

[1] = dose: 100.0 mg/kg/injection, schedule: Q01DX001 (ip), vehicle: Klucel (hydroxypropylcellulose) (HPC)
[2] = dose: 200.0 mg/kg/injection, schedule: Q01DX001 (ip), vehicle: Klucel (hydroxypropylcellulose) (HPC)
[3] = dose: 400.0 mg/kg/injection, schedule: Q01DX001 (ip), vehicle: Klucel (hydroxypropylcellulose) (HPC)
[4] = dose: 100.0 mg/kg/injection, schedule: Q04DX003 (ip), vehicle: saline
[5] = dose: 200.0 mg/kg/injection, schedule: Q04DX003 (ip), vehicle: saline

Measured: T/C

Cc1ccc(C(=O)CCCCCC(=O)c2ccc(C)cc2O)c(O)c1
inactive: [1] 98 % of control | [2] 98 % of control | [3] 95 % of control

CS(=O)c1nsc(S(C)=O)c1C#N (stereo not given)
inactive: dose: 12.5 mg/kg/injection, schedule: Q04DX002 (ip), vehicle: Klucel (hydroxypropylcellulose) (HPC) 122 % of control

NNc1c(Cl)c(F)c(Cl)c(F)c1Cl
inactive: dose: 100.0 mg/kg/injection, schedule: Q01DX001 (ip), vehicle: carboxymethylcellulose (CMC) 104 % of control | dose: 200.0 mg/kg/injection, schedule: Q01DX001 (ip), vehicle: carboxymethylcellulose (CMC) 97 % of control | dose: 400.0 mg/kg/injection, schedule: Q01DX001 (ip), vehicle: carboxymethylcellulose (CMC) 104 % of control

CC(C)Cc1c(N)nc(=S)[nH]c1C(=O)O
inactive: [1] 100 % of control | [4] 100 % of control | [2] 100 % of control | [5] 94 % of control | [3] 109 % of control | dose: 400.0 mg/kg/injection, schedule: Q04DX003 (ip), vehicle: saline 94 % of control

C/C=C(\c1ccccc1)[N+](=O)[O-]
inactive: dose: 12.5 mg/kg/injection, schedule: Q01DX001 (ip), vehicle: acetone 100 % of control | dose: 12.5 mg/kg/injection, schedule: Q04DX003 (ip), vehicle: acetone 98 % of control | dose: 18.75 mg/kg/injection, schedule: Q01DX009 (ip), vehicle: acetone 98 % of control | dose: 25.0 mg/kg/injection, schedule: Q01DX001 (ip), vehicle: acetone 92 % of control | dose: 25.0 mg/kg/injection, schedule: Q04DX003 (ip), vehicle: acetone 98 % of control | dose: 37.5 mg/kg/injection, schedule: Q01DX009 (ip), vehicle: acetone 106 % of control | dose: 50.0 mg/kg/injection, schedule: Q01DX001 (ip), vehicle: acetone 97 % of control | dose: 50.0 mg/kg/injection, schedule: Q04DX003 (ip), vehicle: acetone 100 % of control | dose: 75.0 mg/kg/injection, schedule: Q01DX009 (ip), vehicle: acetone 88 % of control | dose: 75.0 mg/kg/injection, schedule: Q04DX003 (ip), vehicle: saline 94 % of control

CC(CC#N)NCC[P+](c1ccccc1)(c1ccccc1)c1ccccc1 (stereo not given)
inactive: [4] 95 % of control | [5] 96 % of control

COc1ccccc1C(=O)N/N=C/c1ccc(O)cc1
inactive: dose: 100.0 mg/kg/injection, schedule: Q01DX009 (ip), vehicle: Klucel (hydroxypropylcellulose) (HPC) 101 % of control | dose: 200.0 mg/kg/injection, schedule: Q01DX009 (ip), vehicle: Klucel (hydroxypropylcellulose) (HPC) 97 % of control | dose: 400.0 mg/kg/injection, schedule: Q01DX009 (ip), vehicle: Klucel (hydroxypropylcellulose) (HPC) 94 % of control

O=Nc1nc2ncccn2c1-c1ccccc1
inactive: dose: 50.0 mg/kg/injection, schedule: Q01DX001 (ip), vehicle: saline 97 % of control | dose: 100.0 mg/kg/injection, schedule: Q01DX001 (ip), vehicle: saline 101 % of control | dose: 200.0 mg/kg/injection, schedule: Q01DX001 (ip), vehicle: saline 103 % of control | dose: 400.0 mg/kg/injection, schedule: Q01DX001 (ip), vehicle: saline 109 % of control

Cc1ccc(Cl)c(P(=O)(O)O)c1
inactive: dose: 100.0 mg/kg/injection, schedule: Q04DX003 (ip), vehicle: saline with Tween-80 97 % of control | dose: 200.0 mg/kg/injection, schedule: Q04DX003 (ip), vehicle: saline with Tween-80 106 % of control | dose: 400.0 mg/kg/injection, schedule: Q04DX003 (ip), vehicle: saline with Tween-80 104 % of control

Nc1ncnc2c1ncn2C1CCCCC1
inactive: dose: 17.5 mg/kg/injection, schedule: Q01DX Z (ip), vehicle: carboxymethylcellulose (CMC) 89 % of control | dose: 34.0 mg/kg/injection, schedule: Q01DX Z (ip), vehicle: carboxymethylcellulose (CMC) 98 % of control | dose: 34.0 mg/kg/injection, schedule: Q01DX Z (oral), vehicle: carboxymethylcellulose (CMC) 97 % of control | dose: 68.0 mg/kg/injection, schedule: Q01DX Z (ip), vehicle: carboxymethylcellulose (CMC) 102 % of control | dose: 68.0 mg/kg/injection, schedule: Q01DX Z (oral), vehicle: carboxymethylcellulose (CMC) 100 % of control | dose: 136.0 mg/kg/injection, schedule: Q01DX Z (oral), vehicle: carboxymethylcellulose (CMC) 102 % of control

CCOc1ccc(NC(=O)c2cccc(Cl)c2)cc1
inactive: dose: 100.0 mg/kg/injection, schedule: Q01DX009 (ip), vehicle: saline 109 % of control | dose: 200.0 mg/kg/injection, schedule: Q01DX009 (ip), vehicle: saline 96 % of control | dose: 400.0 mg/kg/injection, schedule: Q01DX009 (ip), vehicle: saline 96 % of control

c1ccc(-c2cc3c(-c4ccccc4)c4ccccc4c(-c4ccccc4)c3cc2-c2ccccc2)cc1
inactive: dose: 50.0 mg/kg/injection, schedule: Q01DX009 (ip), vehicle: saline with Tween-80 96 % of control | dose: 100.0 mg/kg/injection, schedule: Q01DX009 (ip), vehicle: saline with Tween-80 96 % of control | dose: 200.0 mg/kg/injection, schedule: Q01DX009 (ip), vehicle: saline with Tween-80 108 % of control

CCC(=O)c1ccc2c(c1)N(CCCN1CCN(CCO)CC1)c1ccccc1S2
inactive: dose: 1.56 mg/kg/injection, schedule: Q03HX024 (ip), vehicle: saline 114 % of control | dose: 3.12 mg/kg/injection, schedule: Q03HX024 (ip), vehicle: saline 101 % of control | dose: 4.0 mg/kg/injection, schedule: Q01DX009 (ip), vehicle: saline 101 % of control | dose: 6.25 mg/kg/injection, schedule: Q01DX009 (ip), vehicle: saline 104 % of control | dose: 6.25 mg/kg/injection, schedule: Q03HX024 (ip), vehicle: saline 110 % of control | dose: 6.25 mg/kg/injection, schedule: Q04DX003 (ip), vehicle: saline 113 % of control | dose: 8.0 mg/kg/injection, schedule: Q01DX009 (ip), vehicle: saline 105 % of control | dose: 12.5 mg/kg/injection, schedule: Q04DX003 (ip), vehicle: saline 93 % of control | dose: 18.75 mg/kg/injection, schedule: Q01DX001 (ip), vehicle: saline 110 % of control | dose: 25.0 mg/kg/injection, schedule: Q04DX003 (ip), vehicle: saline 98 % of control | dose: 32.0 mg/kg/injection, schedule: Q01DX009 (ip), vehicle: saline 90 % of control | dose: 37.5 mg/kg/injection, schedule: Q01DX001 (ip), vehicle: saline 103 % of control | dose: 50.0 mg/kg/injection, schedule: Q04DX003 (ip), vehicle: saline 95 % of control | dose: 75.0 mg/kg/injection, schedule: Q01DX001 (ip), vehicle: saline 119 % of control | [4] 115 % of control

CCOC(=O)c1[nH]c(=S)n(-c2ccccc2)c1C(=O)OCC
inactive: dose: 100.0 mg/kg/injection, schedule: Q01DX001 (ip), vehicle: other 97 % of control | dose: 100.0 mg/kg/injection, schedule: Q01DX009 (ip), vehicle: other 94 % of control and 95 % of control | dose: 100.0 mg/kg/injection, schedule: Q04DX002 (ip), vehicle: other 93 % of control and 87 % of control | dose: 200.0 mg/kg/injection, schedule: Q01DX001 (ip), vehicle: other 108 % of control | dose: 200.0 mg/kg/injection, schedule: Q01DX009 (ip), vehicle: other 94 % of control and 115 % of control | dose: 200.0 mg/kg/injection, schedule: Q04DX002 (ip), vehicle: other 96 % of control and 97 % of control | dose: 400.0 mg/kg/injection, schedule: Q01DX001 (ip), vehicle: other 103 % of control | dose: 400.0 mg/kg/injection, schedule: Q01DX009 (ip), vehicle: other 112 % of control and 90 % of control | dose: 400.0 mg/kg/injection, schedule: Q04DX002 (ip), vehicle: other 93 % of control and 114 % of control

O=S(=O)(/C=C/c1ccccc1)N1CCOCC1
inactive: dose: 100.0 mg/kg/injection, schedule: Q01DX001 (ip), vehicle: acetone 111 % of control | dose: 100.0 mg/kg/injection, schedule: Q01DX009 (ip), vehicle: acetone 90 % of control | dose: 100.0 mg/kg/injection, schedule: Q04DX003 (ip), vehicle: acetone 100 % of control | dose: 200.0 mg/kg/injection, schedule: Q01DX001 (ip), vehicle: acetone 102 % of control | dose: 200.0 mg/kg/injection, schedule: Q01DX009 (ip), vehicle: acetone 93 % of control | dose: 200.0 mg/kg/injection, schedule: Q04DX003 (ip), vehicle: acetone 105 % of control | dose: 400.0 mg/kg/injection, schedule: Q01DX001 (ip), vehicle: acetone 101 % of control | dose: 400.0 mg/kg/injection, schedule: Q01DX009 (ip), vehicle: acetone 93 % of control | dose: 400.0 mg/kg/injection, schedule: Q04DX003 (ip), vehicle: acetone 97 % of control
